Laboratory results published in ChEMBL document CHEMBL1201862, “PubChem BioAssay data set” (2004).
Calls of active or inactive are those of the source.

Experiments:
[1] = inhibitors of intracellular T. cruzi replication, confirmation, NIH3T3 host cells, beta-gal luminescence (AID 2044); format: functional, cell-based;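 also: intracellular parasites grown in NIH/3T3 mouse fibroblasts as host cells; luminescent beta-galactosidase reporter signal from transgenic T. cruzi replicating inside host cells; inhibitors lower the luminescence signal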
[2] = molecular target: T1, Calpain-2 catalytic subunit (Sus scrofa, UniProt P43367); assay: pig calpain II inhibitor potency, dose response, biochemical, fluorogenic peptide substrate (AID 1420); format: functional
T1 sequence (P43367 whole entry): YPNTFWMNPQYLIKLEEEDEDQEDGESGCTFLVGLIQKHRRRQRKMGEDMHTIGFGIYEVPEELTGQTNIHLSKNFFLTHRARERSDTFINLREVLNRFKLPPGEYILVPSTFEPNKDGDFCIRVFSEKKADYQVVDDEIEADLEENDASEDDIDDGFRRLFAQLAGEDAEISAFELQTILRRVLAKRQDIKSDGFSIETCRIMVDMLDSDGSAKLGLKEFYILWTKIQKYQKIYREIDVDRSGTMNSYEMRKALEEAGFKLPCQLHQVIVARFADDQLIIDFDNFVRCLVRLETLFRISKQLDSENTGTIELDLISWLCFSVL

[3] = cytotoxicity toward NIH3T3 fibroblasts, dose response, counter-screen, cell-based, ATP luminescence, mouse fibroblasts (AID 2010); format: functional;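 also: cells exposed to compound for about 90 hours before reading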
[4] = molecular target: NACHT, LRR and PYD domains-containing protein 3 (Homo sapiens, UniProt Q96P20); assay: NALP3 inhibitors in yeast, dose response, luminescent (AID 488799); format: functional
[5] = molecular target: Neurotensin receptor type 1 (Homo sapiens, UniProt P30989); format: functional;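 also: Image-based confirmatory dose-response assay measuring agonist activity at NTR1; NTR1-expressing U2OS osteosarcoma cells imaged for beta-arrestin GFP spot formation; agonist potency where compounds increase beta-arrestin recruitment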
[6] = cytotoxicity in HEK-293T cells, dose response, cytotoxicity control for TCR NF-kB inhibitor project, luminescence, T-cell screen hits (AID 489026); format: functional, cell-based;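 also: cells exposed to compound about 14 hours before the viability readout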
Vero [7] = assay: cytotoxicity of synthesized analogs in Vero 76, SAR follow-up, cytotoxicity control for West Nile virus antiviral project, Vero 76 cells (AID 2414); format: functional; settings: Chlorocebus sabaeus
Vero [8] = assay: cytotoxicity of synthesized analogs in Vero cells, SAR follow-up, cytotoxicity control for West Nile virus antiviral project, cell-based, set II (AID 2402); format: functional; settings: Chlorocebus sabaeus
Vero [9] = assay: Vero E6 cell cytotoxicity, SAR follow-up, cytotoxicity control for West Nile virus antiviral project, synthesized analogs (AID 2244); format: functional; settings: Chlorocebus sabaeus
Vero [10] = assay: West Nile virus CPE inhibition, SAR follow-up, cell-based, synthesized analogs (AID 2238); format: functional; settings: Chlorocebus sabaeus
[11] = molecular target: T2, Tyrosine-protein phosphatase non-receptor type 7 (Homo sapiens, UniProt P35236); assay: Dose Response confirmation of compounds that inhibit HePTP. [Related pubchem assays (depositor defined):AID1059, AID1661, AID2085]; format: functional
T2 sequence (P35236 whole entry): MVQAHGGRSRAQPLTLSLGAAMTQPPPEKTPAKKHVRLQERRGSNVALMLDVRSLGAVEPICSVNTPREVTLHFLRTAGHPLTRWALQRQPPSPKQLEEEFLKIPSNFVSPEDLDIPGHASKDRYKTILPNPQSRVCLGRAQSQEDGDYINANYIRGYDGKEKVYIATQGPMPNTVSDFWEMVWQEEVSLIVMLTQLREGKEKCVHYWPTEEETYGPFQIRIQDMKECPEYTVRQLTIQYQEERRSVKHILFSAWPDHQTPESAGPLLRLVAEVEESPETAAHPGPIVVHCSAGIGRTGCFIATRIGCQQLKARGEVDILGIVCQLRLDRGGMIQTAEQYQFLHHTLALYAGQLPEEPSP

[12] = molecular target: Dual specificity protein phosphatase 3 (Homo sapiens, UniProt P51452); assay: Dose Response Confirmation of compounds that inhibit VHR1 in Fluorescent Assay. [Related pubchem assays (depositor defined):AID1661, AID1878]; format: functional
[13] = molecular target: Low molecular weight phosphotyrosine protein phosphatase (Homo sapiens, UniProt P24666); format: functional; settings: read-out: IC50_Mean;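 also: Dose-response confirmation assay measuring inhibition of LMPTP enzyme activity by fluorescence intensity read-out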
[14] = molecular target: Voltage-dependent T-type calcium channel subunit alpha-1H (Homo sapiens, UniProt O95180); assay: Cav3.2 T-type channel inhibitors, cell-based, synthetic library set 1, calcium flux (AID 493022); format: functional
Mu-type opioid receptor = Mu-type opioid receptor (Homo sapiens, UniProt P35372); assay: SAR Analysis of Antagonists of the MOR Receptor using an Image-Based Assay - Set 3. [Related pubchem assays (depositor defined):AID1777, AID1785, AID1786, AID1966, AID2133, AID2136, AID2284, AID2285, AID2420]; format: functional
[15] = molecular target: T3, Kappa-type opioid receptor (Homo sapiens, UniProt P41145); assay: SAR analysis of small molecule antagonists of the kappa opioid receptor via a luminescent beta-arrestin assay - Set 6. [Related pubchem assays (depositor defined):AID1777, AID1778, AID1785, AID1786, AID1966, AID2133, AID2136, AID2285]; format: functional
[16] = molecular target: T3, Kappa-type opioid receptor; assay: SAR analysis of small molecule antagonists of the kappa opioid receptor via a luminescent beta-arrestin assay - Set 4. [Related pubchem assays (depositor defined):AID1777, AID1778, AID1785, AID1786, AID1966, AID2133, AID2136, AID2285]; format: functional
[17] = molecular target: Delta-type opioid receptor (Homo sapiens, UniProt P41143); assay: SAR Analysis of Antagonists of the DOR Receptor using an Image-Based Assay - Set 3. [Related pubchem assays (depositor defined):AID1777, AID1785]; format: functional;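 also: U2OS cells expressing DOR1 and beta-arrestin GFP stimulated with 100 nM SNC80; imaging of GFP-tagged beta-arrestin moving into spots after receptor activation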
[18] = molecular target: T3, Kappa-type opioid receptor; assay: SAR analysis of Antagonists of the Kappa Opioid Receptor (KOR) using an Image-Based Assay - Set 4. [Related pubchem assays (depositor defined):AID1777, AID1785]; format: functional

T3 sequence (P41145 whole entry): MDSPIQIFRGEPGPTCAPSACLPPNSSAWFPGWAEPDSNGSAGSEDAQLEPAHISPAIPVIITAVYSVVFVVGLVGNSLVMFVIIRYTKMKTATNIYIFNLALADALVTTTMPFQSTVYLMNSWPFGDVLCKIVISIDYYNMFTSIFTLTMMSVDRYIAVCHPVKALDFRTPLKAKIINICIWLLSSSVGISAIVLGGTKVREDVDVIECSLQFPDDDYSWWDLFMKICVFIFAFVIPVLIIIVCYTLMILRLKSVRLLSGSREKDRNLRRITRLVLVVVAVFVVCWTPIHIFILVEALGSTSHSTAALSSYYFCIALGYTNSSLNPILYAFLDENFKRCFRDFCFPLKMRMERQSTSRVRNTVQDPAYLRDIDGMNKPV
Sequence of Low molecular weight phosphotyrosine protein phosphatase (P24666 whole entry): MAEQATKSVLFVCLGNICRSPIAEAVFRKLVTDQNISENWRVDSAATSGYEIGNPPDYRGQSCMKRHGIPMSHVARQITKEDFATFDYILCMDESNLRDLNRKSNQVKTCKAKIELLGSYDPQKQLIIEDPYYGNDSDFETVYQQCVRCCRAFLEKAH
Sequence of Neurotensin receptor type 1 (P30989 whole entry): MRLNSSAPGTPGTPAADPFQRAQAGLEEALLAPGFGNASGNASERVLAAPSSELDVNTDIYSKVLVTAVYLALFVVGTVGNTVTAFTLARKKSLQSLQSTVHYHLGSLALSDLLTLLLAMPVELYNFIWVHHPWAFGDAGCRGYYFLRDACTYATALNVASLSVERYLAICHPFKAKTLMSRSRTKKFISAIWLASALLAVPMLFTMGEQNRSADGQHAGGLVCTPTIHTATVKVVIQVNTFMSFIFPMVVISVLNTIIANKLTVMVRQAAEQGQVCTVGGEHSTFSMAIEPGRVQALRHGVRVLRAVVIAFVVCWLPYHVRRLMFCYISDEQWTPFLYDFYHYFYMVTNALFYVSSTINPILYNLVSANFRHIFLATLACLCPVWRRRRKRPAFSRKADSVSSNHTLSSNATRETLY
Sequence of Dual specificity protein phosphatase 3 (P51452 whole entry): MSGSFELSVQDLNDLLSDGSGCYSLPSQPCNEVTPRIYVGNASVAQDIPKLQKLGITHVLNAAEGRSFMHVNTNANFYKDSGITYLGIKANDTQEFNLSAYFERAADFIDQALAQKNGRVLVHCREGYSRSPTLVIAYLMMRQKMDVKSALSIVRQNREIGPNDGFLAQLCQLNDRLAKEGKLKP
Sequence of NACHT, LRR and PYD domains-containing protein 3 (Q96P20 whole entry, the tested form may be a part): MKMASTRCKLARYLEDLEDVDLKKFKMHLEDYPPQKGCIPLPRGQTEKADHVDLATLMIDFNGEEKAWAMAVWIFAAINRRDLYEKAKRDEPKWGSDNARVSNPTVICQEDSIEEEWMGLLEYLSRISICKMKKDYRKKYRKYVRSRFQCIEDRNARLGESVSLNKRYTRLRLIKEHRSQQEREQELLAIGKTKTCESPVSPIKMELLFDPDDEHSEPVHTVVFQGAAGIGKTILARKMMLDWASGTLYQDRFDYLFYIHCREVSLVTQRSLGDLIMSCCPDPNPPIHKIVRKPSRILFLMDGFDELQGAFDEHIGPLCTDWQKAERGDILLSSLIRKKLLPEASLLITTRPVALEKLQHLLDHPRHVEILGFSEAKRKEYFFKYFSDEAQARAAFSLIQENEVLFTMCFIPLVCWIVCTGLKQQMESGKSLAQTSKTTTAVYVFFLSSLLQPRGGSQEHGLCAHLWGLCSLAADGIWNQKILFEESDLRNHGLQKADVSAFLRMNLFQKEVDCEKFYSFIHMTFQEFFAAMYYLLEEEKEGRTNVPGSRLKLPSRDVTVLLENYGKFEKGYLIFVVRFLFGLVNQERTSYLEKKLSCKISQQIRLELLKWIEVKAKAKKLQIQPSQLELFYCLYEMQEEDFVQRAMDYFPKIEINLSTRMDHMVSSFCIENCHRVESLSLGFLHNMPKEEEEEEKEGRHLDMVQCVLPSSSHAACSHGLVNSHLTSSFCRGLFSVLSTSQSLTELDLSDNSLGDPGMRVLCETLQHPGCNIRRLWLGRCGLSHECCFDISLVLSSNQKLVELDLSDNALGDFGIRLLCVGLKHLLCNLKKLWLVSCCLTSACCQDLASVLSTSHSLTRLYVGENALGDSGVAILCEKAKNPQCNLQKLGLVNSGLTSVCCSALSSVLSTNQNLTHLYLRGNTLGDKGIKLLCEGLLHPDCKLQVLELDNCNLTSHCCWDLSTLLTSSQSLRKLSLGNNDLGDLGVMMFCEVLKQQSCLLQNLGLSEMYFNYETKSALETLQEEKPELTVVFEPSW
Sequence of Mu-type opioid receptor (P35372 whole entry): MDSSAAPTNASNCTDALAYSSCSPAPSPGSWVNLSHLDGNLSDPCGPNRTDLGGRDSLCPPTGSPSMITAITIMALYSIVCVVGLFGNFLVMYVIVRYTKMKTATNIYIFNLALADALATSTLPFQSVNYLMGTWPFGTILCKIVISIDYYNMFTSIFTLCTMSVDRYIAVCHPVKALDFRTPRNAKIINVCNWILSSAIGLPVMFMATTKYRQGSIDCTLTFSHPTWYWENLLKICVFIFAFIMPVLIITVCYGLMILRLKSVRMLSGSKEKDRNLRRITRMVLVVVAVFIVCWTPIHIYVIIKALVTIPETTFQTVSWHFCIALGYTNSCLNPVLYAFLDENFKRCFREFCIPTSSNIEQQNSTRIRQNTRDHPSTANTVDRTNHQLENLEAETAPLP
Sequence of Delta-type opioid receptor (P41143 whole entry): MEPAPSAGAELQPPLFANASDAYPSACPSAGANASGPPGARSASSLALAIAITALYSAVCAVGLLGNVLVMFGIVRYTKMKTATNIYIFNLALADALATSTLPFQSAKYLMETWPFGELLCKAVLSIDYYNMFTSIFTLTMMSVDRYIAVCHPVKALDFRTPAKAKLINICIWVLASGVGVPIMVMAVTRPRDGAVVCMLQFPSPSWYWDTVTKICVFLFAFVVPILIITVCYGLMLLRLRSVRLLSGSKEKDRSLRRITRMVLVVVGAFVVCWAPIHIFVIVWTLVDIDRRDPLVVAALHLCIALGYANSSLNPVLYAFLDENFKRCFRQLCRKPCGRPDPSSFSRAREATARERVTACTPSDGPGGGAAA

With CCCCCCCCn1c2c(c(=N)c3ccccc31)CCC2 the EC50 [1] was < 0.1 µM (active), the IC50 [2] was 7.78 µM (not active) and the EC50 [3] was 8.28 µM (active). The IC50 [4] was 11.9 µM (active), the EC50 [5] was 17.7 µM (active) and the IC50 [6] was 59.4 µM (inactive). For the same compound, the EC50 (cells) was 0.014 µM (active).

For O=C(CSc1nc2ccccc2c(=O)n1-c1ccc(F)c(Cl)c1)Nc1ccc2c(c1)CCC2, the CC50 (Vero [7]) was > 66.6 µM (active), the CC50 (Vero [8]) was > 100 µM (active) and the CC50 (Vero [9]) was > 40 µM (active). For the same compound, the IC50 (Vero [10]) was 19.3 µM (active).

With O=C(CSc1ccc2ccccc2n1)Nc1nsc(-c2ccc(Cl)cc2)n1 the IC50 [11] was 0.931 µM (active), the IC50 [12] was 6.74 µM (active) and the IC50 [13] was 11.7 µM (active).

For O=C(COc1ccc(F)cc1Cl)Nc1nnc(-c2ccc(F)cc2)o1, the EC50 [14] was 1.9 µM (active).

With Cc1ccc(S(=O)(=O)NCc2ccc(C(=O)NCCCN3CCN(c4ccccc4)CC3)cc2)cc1 the IC50 (Mu-type opioid receptor) was 0.469 µM (active), the IC50 [15] was > 20 µM (inactive) and the IC50 [16] was > 20 µM (inactive). For the same compound, the IC50 [17] was > 32 µM (inactive) and the IC50 [18] was > 32 µM (inactive).
